Assay results reported in ChEMBL document CHEMBL4414679, “Discovery of 4,6-pyrimidinediamine derivatives as novel dual EGFR/FGFR inhibitors aimed EGFR/FGFR1-positive NSCLC” (Eur J Med Chem, 2020).
Activity calls are given as the source filed them. No cut-off for these calls is given here.

Tests used:
NCI-H226 [1] = assay: Induction of apoptosis in human NCI-H226 cells assessed as early apoptotic cells at 5 uM measured after 24 hrs by Annexin-V/propidium iodide staining-based flow cytometric analysis (reference value: 0.8%); assay type: functional
NCI-H226 [2] = assay: Induction of apoptosis in human NCI-H226 cells assessed as late apoptotic cells at 1 uM measured after 24 hrs by Annexin-V/propidium iodide staining-based flow cytometric analysis (reference value: 2.8%); assay type: functional
[3] = target: CDK7/Cyclin H/MNAT1 (Homo sapiens) (UniProt P51946+P50613+P51948); assay: Inhibition of full length N-terminal GST-tagged human CDK7 (1 to 346 AA) coexpressed with CyclinH (1 to 323 AA)and MAT1 (1 to 309) in baculovirus at 10 uM using FAM-labelled peptide as substrate pre-incubated for 10 mins followed by substrate addition by mobility shift assay relative to control; assay type: protein-complex assay
[4] = target: Mitogen-activated protein kinase 1 (Homo sapiens) (UniProt P28482); assay: Inhibition of full length N-terminal GST-tagged human ERK2 (1 to 360 AA) expressed in Escherichia coli at 10 uM using FAM-labelled peptide as substrate pre-incubated for 10 mins followed by substrate addition by mobility shift assay relative to control
Mitogen-activated protein kinase 1 (Homo sapiens), sequence (P28482 whole entry, the tested form may be a part): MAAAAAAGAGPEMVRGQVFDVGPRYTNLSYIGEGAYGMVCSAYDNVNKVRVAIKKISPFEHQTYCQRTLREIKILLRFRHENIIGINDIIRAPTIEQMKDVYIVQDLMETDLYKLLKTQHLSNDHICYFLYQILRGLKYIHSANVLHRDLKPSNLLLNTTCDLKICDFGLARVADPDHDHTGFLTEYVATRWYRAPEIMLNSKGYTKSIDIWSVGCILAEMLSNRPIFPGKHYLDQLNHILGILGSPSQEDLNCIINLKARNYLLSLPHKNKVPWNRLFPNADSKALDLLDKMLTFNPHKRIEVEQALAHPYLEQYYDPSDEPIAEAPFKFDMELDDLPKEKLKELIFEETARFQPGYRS

Homo sapiens [5] = species on record: Homo sapiens; assay: Induction of cell cycle arrest in gefitinib-insensitive human HCC827GR cells assessed as accumulation of cells at G1 measured after 24 hrs by flow cytometry; assay type: functional
[6] = target: Wee1-like protein kinase (Homo sapiens) (UniProt P30291); assay: Inhibition of N-terminal GST tagged human WEE1 catalytic domain (215 to 646 AA) expressed in baculovirus at 10 uM using FAM-labelled peptide as substrate pre-incubated for 10 mins followed by substrate addition by mobility shift assay relative to control
Wee1-like protein kinase (Homo sapiens), sequence (P30291 whole entry, looked up, the tested form may be a part): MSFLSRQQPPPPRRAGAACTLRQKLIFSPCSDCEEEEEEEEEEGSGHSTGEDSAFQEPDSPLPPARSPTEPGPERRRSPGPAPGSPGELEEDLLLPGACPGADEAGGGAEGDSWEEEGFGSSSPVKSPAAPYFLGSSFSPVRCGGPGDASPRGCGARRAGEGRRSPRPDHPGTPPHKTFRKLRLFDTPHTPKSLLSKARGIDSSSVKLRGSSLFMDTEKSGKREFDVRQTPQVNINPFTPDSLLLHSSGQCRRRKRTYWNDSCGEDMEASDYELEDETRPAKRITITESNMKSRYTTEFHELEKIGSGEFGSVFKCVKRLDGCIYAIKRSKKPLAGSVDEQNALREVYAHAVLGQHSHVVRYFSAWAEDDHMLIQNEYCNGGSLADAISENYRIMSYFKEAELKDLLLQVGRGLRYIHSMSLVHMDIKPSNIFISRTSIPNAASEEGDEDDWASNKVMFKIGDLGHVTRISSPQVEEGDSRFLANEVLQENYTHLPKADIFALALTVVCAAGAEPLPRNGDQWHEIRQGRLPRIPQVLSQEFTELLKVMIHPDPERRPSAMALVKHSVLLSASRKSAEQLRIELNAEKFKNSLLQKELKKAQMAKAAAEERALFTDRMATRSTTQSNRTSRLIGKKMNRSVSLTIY

[7] = target: T1, Fibroblast growth factor receptor 1 (Homo sapiens, UniProt P11362); assay: Inhibition of FGF-induced FGFR1 phosphorylation in serum-starved human H520 cells upto 10 uM incubated for 1 hr by Western blot analysis
Target sequence in this assay (P11362 22-822 limits assumed): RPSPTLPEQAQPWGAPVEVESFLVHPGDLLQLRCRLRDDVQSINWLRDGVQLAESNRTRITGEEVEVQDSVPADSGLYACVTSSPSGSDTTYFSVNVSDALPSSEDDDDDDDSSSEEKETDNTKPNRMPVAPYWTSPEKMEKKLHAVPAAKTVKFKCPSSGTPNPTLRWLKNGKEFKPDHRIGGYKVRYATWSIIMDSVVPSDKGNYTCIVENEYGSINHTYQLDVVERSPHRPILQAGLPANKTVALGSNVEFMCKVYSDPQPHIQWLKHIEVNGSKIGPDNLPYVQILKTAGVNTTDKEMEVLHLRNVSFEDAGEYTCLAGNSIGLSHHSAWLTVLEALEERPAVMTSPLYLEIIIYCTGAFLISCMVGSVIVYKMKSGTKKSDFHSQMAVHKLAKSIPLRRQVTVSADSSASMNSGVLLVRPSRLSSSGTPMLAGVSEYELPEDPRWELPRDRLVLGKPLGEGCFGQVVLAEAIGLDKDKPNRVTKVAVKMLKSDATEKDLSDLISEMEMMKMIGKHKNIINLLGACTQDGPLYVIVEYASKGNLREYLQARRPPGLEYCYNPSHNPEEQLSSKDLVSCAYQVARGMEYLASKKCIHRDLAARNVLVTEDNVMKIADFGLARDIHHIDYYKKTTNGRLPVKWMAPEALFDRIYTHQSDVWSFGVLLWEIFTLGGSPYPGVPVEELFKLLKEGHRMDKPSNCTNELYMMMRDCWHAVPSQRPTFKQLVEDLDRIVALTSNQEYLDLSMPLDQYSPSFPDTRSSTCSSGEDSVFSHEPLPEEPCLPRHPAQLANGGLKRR

[8] = Induction of apoptosis in gefitinib-insensitive human HCC827GR cells assessed as late apoptotic cells at 1 uM measured after 24 hrs by Annexin-V/propidium iodide staining-based flow cytometric analysis (reference value: 1.5%); assay type: functional
[9] = Half-life in Sprague-Dawley rat at 30 mg/kg, po measured upto 24 hrs by UPLC-MS/MS; assay type: ADME, organism-based; conditions: in vivo
[10] = test system: Epidermal growth factor receptor (Homo sapiens), P00533 [L858R]; assay: Inhibition of recombinant human EGFR L858R mutant expressed in baculovirus at 10 uM using FAM-labelled peptide as substrate pre-incubated for 10 mins followed by substrate addition by mobility shift assay relative to control
Epidermal growth factor receptor (Homo sapiens), P00533 [L858R], sequence (P00533 whole entry L858R, the tested form may be a part): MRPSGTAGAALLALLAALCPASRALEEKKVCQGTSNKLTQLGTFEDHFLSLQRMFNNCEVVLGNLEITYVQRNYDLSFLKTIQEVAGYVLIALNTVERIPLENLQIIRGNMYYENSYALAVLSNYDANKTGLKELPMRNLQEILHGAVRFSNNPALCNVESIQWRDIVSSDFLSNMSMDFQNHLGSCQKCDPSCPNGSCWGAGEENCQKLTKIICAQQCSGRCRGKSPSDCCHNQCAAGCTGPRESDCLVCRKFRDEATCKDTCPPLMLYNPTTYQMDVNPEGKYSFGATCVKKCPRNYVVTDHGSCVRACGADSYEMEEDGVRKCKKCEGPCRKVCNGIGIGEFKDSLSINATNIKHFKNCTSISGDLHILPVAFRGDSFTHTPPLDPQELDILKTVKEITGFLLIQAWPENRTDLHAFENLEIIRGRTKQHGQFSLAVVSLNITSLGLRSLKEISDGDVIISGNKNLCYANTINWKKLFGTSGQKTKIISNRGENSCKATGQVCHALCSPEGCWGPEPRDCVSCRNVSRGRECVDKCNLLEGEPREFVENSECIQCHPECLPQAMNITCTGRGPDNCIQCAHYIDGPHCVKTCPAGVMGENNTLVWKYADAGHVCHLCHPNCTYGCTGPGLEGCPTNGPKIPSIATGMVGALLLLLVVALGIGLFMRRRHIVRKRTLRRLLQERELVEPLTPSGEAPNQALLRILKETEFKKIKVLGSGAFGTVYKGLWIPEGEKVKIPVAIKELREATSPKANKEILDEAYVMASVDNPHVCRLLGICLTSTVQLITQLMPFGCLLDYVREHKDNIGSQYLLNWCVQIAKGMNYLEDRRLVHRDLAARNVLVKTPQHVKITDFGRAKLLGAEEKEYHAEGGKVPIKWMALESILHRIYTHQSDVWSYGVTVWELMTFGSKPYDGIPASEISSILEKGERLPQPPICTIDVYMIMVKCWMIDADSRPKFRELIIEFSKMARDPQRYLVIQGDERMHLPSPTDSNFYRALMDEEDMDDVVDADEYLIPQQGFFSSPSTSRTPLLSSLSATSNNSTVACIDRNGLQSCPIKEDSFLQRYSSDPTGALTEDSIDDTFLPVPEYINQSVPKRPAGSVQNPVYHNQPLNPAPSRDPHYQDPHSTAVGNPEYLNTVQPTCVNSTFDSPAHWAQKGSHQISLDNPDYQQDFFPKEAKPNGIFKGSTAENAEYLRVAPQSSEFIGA

[11] = target: Fibroblast growth factor receptor 2 (Homo sapiens) (UniProt P21802); assay: Inhibition of N-terminal GST tagged human FGFR2 cytoplasmic domain (399 to 821 AA) expressed in baculovirus at 10 uM using FAM-labelled peptide as substrate pre-incubated for 10 mins followed by substrate addition by mobility shift assay relative to control
NCI-H226 [12] = assay: Induction of apoptosis in human NCI-H226 cells assessed as viable cells at 5 uM measured after 24 hrs by Annexin-V/propidium iodide staining-based flow cytometric analysis (reference value: 93.4%); assay type: functional; conditions: NCI-H226, 24 h, read-out: Activity
[13] = target: T1, Fibroblast growth factor receptor 1; assay: Inhibition of FGFR1 in gefitinib-insensitive human HCC827GR cells assessed as reduction in FGF-induced Akt phosphorylation upto 10 uM measured after 2 hrs by western blot analysis
Target sequence in this assay (P11362 22-822 limits assumed): as the sequence (P11362 22-822 limits assumed) above

HCC827 = assay: Antiproliferative activity against human HCC827 cells assessed as inhibition of cell growth at 10 uM incubated for 48 hrs by MTT assay relative to control; assay type: functional; conditions: HCC827, 48 h
Homo sapiens [14] = assay: Antitumor activity against human HCC827GR cells xenografted in BALB/c nude mouse assessed as reduction in tumor volume at 15 mg/kg, ip dosed measured every 2 days upto 25 days; assay type: functional, organism-based
[15] = target: T2, Epidermal growth factor receptor (Homo sapiens, UniProt P00533); assay: Inhibition of EGF-induced EGFR phosphorylation in serum-starved human HCC827 cells upto 10 uM incubated for 1 hr by Western blot analysis; assay type: cell-based
T2 sequence (P00533 whole entry): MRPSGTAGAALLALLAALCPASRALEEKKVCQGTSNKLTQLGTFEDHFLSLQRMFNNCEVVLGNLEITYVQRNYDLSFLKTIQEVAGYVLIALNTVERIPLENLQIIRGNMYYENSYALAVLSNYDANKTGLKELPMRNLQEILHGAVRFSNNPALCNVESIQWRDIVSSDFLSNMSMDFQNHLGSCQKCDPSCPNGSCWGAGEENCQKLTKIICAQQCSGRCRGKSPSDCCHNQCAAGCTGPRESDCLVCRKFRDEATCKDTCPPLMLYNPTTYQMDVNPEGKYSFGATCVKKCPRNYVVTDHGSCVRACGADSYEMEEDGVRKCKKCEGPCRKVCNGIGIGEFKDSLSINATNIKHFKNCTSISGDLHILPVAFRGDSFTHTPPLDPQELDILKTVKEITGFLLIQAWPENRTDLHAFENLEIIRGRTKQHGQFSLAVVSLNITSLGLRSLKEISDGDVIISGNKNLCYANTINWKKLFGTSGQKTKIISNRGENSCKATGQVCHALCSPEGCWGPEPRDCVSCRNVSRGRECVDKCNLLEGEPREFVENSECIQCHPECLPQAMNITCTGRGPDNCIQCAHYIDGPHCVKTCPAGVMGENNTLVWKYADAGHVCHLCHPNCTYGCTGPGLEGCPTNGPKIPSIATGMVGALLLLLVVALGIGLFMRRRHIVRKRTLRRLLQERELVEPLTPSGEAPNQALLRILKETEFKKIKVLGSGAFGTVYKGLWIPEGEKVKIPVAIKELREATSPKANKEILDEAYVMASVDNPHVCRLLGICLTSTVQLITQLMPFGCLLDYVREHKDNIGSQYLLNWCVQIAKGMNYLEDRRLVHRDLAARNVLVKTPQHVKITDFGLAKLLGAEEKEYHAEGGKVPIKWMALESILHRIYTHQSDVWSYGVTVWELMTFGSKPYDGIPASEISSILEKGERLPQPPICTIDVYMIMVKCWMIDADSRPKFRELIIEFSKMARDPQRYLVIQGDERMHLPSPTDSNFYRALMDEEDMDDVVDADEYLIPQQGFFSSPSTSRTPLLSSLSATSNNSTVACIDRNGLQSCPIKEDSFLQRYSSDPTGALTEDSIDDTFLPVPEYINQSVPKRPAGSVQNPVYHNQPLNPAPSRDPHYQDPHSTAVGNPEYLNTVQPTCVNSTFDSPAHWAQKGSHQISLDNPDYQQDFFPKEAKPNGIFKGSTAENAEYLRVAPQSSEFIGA

[16] = Antiproliferative activity against gefitinib-resistant human HCC827GR cells incubated for 48 hrs by MTT assay; assay type: functional
[17] = Induction of apoptosis in gefitinib-insensitive human HCC827GR cells assessed as late apoptotic cells at 10 uM measured after 24 hrs by Annexin-V/propidium iodide staining-based flow cytometric analysis (reference value: 1.5%); assay type: functional
[18] = test system: Epidermal growth factor receptor (Homo sapiens), P00533 [T790M]; assay: Inhibition of GST-tagged human EGFR T790M mutant expressed in baculovirus at 10 uM using FAM-labelled peptide as substrate pre-incubated for 10 mins followed by substrate addition by mobility shift assay relative to control
[19] = AUC (0 to 24 hrs) in Sprague-Dawley rat at 30 mg/kg, po measured upto 24 hrs by UPLC-MS/MS; assay type: ADME, organism-based; set-up: time < 24 hr, dose 30 mg/kg, route oral; conditions: in vivo
NCI-H520 = assay: Antiproliferative activity against human NCI-H520 cells incubated for 48 hrs by MTT assay; assay type: functional, cell-based; conditions: NCI-H520, 48 h
NCI-H226 [20] = assay: Induction of apoptosis in human NCI-H226 cells assessed as necrotic cells at 5 uM measured after 24 hrs by Annexin-V/propidium iodide staining-based flow cytometric analysis (reference value: 3%); assay type: functional
[21] = target: T2, Epidermal growth factor receptor; assay: Inhibition of EGFR in human PC9 cells assessed as reduction in EGF-induced AKT phosphorylation upto 10 uM incubated for 1 hr by Western blot analysis; assay type: cell-based
[22] = target: Platelet-derived growth factor receptor beta (Homo sapiens) (UniProt P09619); assay: Inhibition of N-terminal GST tagged human PDGFRbeta cytoplasmic domain (557 to 1106 AA) expressed in baculovirus at 10 uM using FAM-labelled peptide as substrate pre-incubated for 10 mins followed by substrate addition by mobility shift assay relative to control
[23] = Induction of apoptosis in gefitinib-insensitive human HCC827GR cells assessed as necrotic cells at 2.5 uM measured after 24 hrs by Annexin-V/propidium iodide staining-based flow cytometric analysis (reference value: 5.8%); assay type: functional
[24] = target: T1, Fibroblast growth factor receptor 1; assay: Inhibition of N-terminal GST-tagged human FGFR1 cytoplasmic domain (398-822 AA) expressed in baculovirus using FAM-labelled peptide as substrate pre-incubated for 10 mins followed by substrate addition by mobility shift assay
Homo sapiens [25] = species on record: Homo sapiens; assay: Inhibition of colony formation in gefitinib-insensitive human HCC827GR cells measured after 24 hrs by crystal violet staining based assay; assay type: functional
[26] = Cmax in Sprague-Dawley rat at 30 mg/kg, po measured upto 24 hrs by UPLC-MS/MS; assay type: ADME, organism-based; set-up: dose 30 mg/kg, route oral; conditions: in vivo
NCI-H226 [27] = assay: Induction of apoptosis in human NCI-H226 cells assessed as late apoptotic cells at 10 uM measured after 24 hrs by Annexin-V/propidium iodide staining-based flow cytometric analysis (reference value: 2.8%); assay type: functional
[28] = target: Inhibitor of nuclear factor kappa-B kinase subunit beta (Homo sapiens) (UniProt O14920); assay: Inhibition of N-terminal GST tagged truncated human IKKbeta (1 to 662 AA) expressed in baculovirus at 10 uM using FAM-labelled peptide as substrate pre-incubated for 10 mins followed by substrate addition by mobility shift assay relative to control
Inhibitor of nuclear factor kappa-B kinase subunit beta (Homo sapiens), sequence (O14920 whole entry, the tested form may be a part): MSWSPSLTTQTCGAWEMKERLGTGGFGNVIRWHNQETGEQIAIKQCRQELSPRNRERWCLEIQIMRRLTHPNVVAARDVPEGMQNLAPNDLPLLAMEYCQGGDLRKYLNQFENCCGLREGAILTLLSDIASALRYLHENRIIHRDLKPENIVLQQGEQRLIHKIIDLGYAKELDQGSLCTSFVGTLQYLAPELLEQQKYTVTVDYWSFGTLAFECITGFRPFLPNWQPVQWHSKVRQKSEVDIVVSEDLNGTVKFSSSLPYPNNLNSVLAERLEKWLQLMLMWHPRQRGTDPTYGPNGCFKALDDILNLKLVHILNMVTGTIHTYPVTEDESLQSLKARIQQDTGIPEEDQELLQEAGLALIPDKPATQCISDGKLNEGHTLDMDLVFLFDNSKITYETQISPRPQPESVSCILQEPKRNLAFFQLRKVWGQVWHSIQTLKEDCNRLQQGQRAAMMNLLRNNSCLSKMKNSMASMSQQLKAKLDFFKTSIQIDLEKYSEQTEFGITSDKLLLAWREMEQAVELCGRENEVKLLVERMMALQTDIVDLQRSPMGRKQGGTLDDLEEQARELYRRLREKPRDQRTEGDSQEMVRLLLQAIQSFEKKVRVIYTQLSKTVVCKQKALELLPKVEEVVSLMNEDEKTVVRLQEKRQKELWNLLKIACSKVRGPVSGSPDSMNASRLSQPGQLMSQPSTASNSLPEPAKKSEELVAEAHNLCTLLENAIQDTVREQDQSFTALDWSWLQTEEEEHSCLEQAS

With `COc1ccc(OC)c(Nc2cc(NC(=O)Nc3c(Cl)cccc3Cl)ncn2)c1` as the compound, how does the Activity (NCI-H226 [1]) read?
The Activity was 6.3%.

What about the Activity (NCI-H226 [2]) of the same compound?
The Activity was 3.5%.

And the inhibition [3]?
Its inhibition is 22.3%.

And the inhibition [4]?
The inhibition was 9.1%.

What about the Activity (Homo sapiens [5]) of the same compound?
The Activity was “Active”.

And the inhibition [6]?
The inhibition was 28%.

And the inhibition [7]?
The inhibition was “Active”.

And the Activity [8]?
Its Activity is 16%.

What about the half-life [9] of the same compound?
The half-life was 7.07 h.

And the inhibition [10]?
The inhibition was 96.9%.

What about the inhibition [11] of the same compound?
Its inhibition is 82.5%.

And the viability at 5 µM (NCI-H226 [12])?
The viability at 5 µM was 79.6%.

And the inhibition [13]?
Its inhibition is “Active”.

And the inhibition at 10 µM (HCC827)?
Its inhibition at 10 µM is 94%.

And the Activity (Homo sapiens [14])?
Its Activity is “Active”.

What about the inhibition [15] of the same compound?
Its inhibition is “Active”.

And the IC50 [16]?
The IC50 was 0.93 µM.

What about the Activity [17] of the same compound?
Its Activity is 30.1%.

And the inhibition [18]?
Its inhibition is 86.8%.

And the AUC(0-t) at 24 h [19]?
Its AUC(0-t) at 24 h is 9690 ng·h/mL.

And the IC50 (NCI-H520)?
Its IC50 is 3.03 µM.

What about the Activity (NCI-H226 [20]) of the same compound?
The Activity was 5.2%.

And the inhibition [21]?
Its inhibition is “Active”.

And the inhibition [22]?
The inhibition was 56.2%.

And the Activity [23]?
Its Activity is 4.5%.

What about the IC50 [24] of the same compound?
Its IC50 is 0.808 µM.

What about the inhibition (Homo sapiens [25]) of the same compound?
Its inhibition is “Dose-dependent effect”.

And the Cmax [26]?
Its Cmax is 1270 ng/mL.

And the Activity (NCI-H226 [27])?
The Activity was 11.9%.

And the inhibition [28]?
The inhibition was -0.73%.
